Test results reported in PubChem BioAssay (NCI).
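Grown in 96-well plates, cells were treated for 48 hours with each compound at five concentrations. Insufficient inhibition: endpoint recorded as highest concentration tested. At the GI50, growth is halved. TGI denotes the concentration required for complete inhibition of growth.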

How the values were obtained:
Assay in all cases: DTP human tumour cell line panel, 48 h
A498 renal = system: A498 renal
MALME-3M melanoma = system: MALME-3M melanoma
MDA-MB-435 = system: MDA-MB-435
HOP-92 NSCLC = system: HOP-92 NSCLC
NCI-H460 lung = system: NCI-H460 lung
CCRF-CEM leukemia = system: CCRF-CEM leukemia
SF-268 CNS = system: SF-268 CNS
SK-MEL-28 melanoma = system: SK-MEL-28 melanoma
KM12 colon = system: KM12 colon
OVCAR-3 ovarian = system: OVCAR-3 ovarian
ACHN renal = system: ACHN renal
OVCAR-8 ovarian = system: OVCAR-8 ovarian
BT-549 breast = system: BT-549 breast
NCI/ADR-RES ovarian = system: NCI/ADR-RES ovarian
EKVX NSCLC = system: EKVX NSCLC
OVCAR-5 ovarian = system: OVCAR-5 ovarian
HCT-116 colon = system: HCT-116 colon
SK-MEL-5 melanoma = system: SK-MEL-5 melanoma
SNB-75 CNS = system: SNB-75 CNS
K-562 leukemia = system: K-562 leukemia
HL-60(TB) leukemia = system: HL-60(TB) leukemia
IGROV1 ovarian = system: IGROV1 ovarian
PC-3 prostate = system: PC-3 prostate
HCC-2998 colon = system: HCC-2998 colon
786-0 renal = system: 786-0 renal
NCI-H522 lung = system: NCI-H522 lung
OVCAR-4 ovarian = system: OVCAR-4 ovarian
SF-295 CNS = system: SF-295 CNS
HS 578T breast = system: HS 578T breast
MOLT-4 leukemia = system: MOLT-4 leukemia
MCF7 breast = system: MCF7 breast
LOX IMVI melanoma = system: LOX IMVI melanoma
M14 melanoma = system: M14 melanoma
CAKI-1 renal = system: CAKI-1 renal
SN12C renal = system: SN12C renal
U251 CNS = system: U251 CNS
SK-MEL-2 melanoma = system: SK-MEL-2 melanoma
TK-10 renal = system: TK-10 renal
MDA-MB-231 breast = system: MDA-MB-231 breast
HCT-15 colon = system: HCT-15 colon
NCI-H23 lung = system: NCI-H23 lung
SNB-19 CNS = system: SNB-19 CNS
RPMI-8226 leukemia = system: RPMI-8226 leukemia
SW-620 colon = system: SW-620 colon
DU-145 prostate = system: DU-145 prostate
SR leukemia = system: SR leukemia
UACC-62 melanoma = system: UACC-62 melanoma
SF-539 CNS = system: SF-539 CNS
UACC-257 melanoma = system: UACC-257 melanoma
RXF 393 renal = system: RXF 393 renal
UO-31 renal = system: UO-31 renal

## CN1CCN(CCOc2ccc(-c3cnc4c(-c5cccc(F)c5F)cnn4c3)cc2)CC1
A498 renal
  GI50: 5410 nM
  TGI: 19700 nM
MALME-3M melanoma
  GI50: 1530 nM
  TGI: 3010 nM
MDA-MB-435
  GI50: 1680 nM
  TGI: 3070 nM
HOP-92 NSCLC
  GI50: 4140 nM
  TGI: 26400 nM
NCI-H460 lung
  GI50: 1670 nM
  TGI: 3190 nM
CCRF-CEM leukemia
  GI50: 1550 nM
  TGI: 3810 nM
SF-268 CNS
  GI50: 2150 nM
  TGI: 5240 nM
SK-MEL-28 melanoma
  GI50: 1770 nM
  TGI: 3260 nM
KM12 colon
  GI50: 1720 nM
  TGI: 3390 nM
OVCAR-3 ovarian
  GI50: 1710 nM
  TGI: 3420 nM
ACHN renal
  GI50: 1620 nM
  TGI: 2970 nM
OVCAR-8 ovarian
  GI50: 2100 nM
  TGI: 5260 nM
BT-549 breast
  GI50: 1570 nM
  TGI: 3150 nM
NCI/ADR-RES ovarian
  GI50: 2210 nM
  TGI: 5490 nM
EKVX NSCLC
  GI50: 1590 nM
  TGI: 3750 nM
OVCAR-5 ovarian
  GI50: 1990 nM
  TGI: 4430 nM
HCT-116 colon
  GI50: 1660 nM
  TGI: 3040 nM
SK-MEL-5 melanoma
  GI50: 1670 nM
  TGI: 3070 nM
SNB-75 CNS
  GI50: 1410 nM
  TGI: 2730 nM
K-562 leukemia
  GI50: 1660 nM
  TGI: 3530 nM
HL-60(TB) leukemia
  GI50: 1910 nM
  TGI: 3790 nM
IGROV1 ovarian
  GI50: 1610 nM
  TGI: 3270 nM
PC-3 prostate
  GI50: 1960 nM
  TGI: 5640 nM
HCC-2998 colon
  GI50: 11700 nM
  TGI: 24700 nM
786-0 renal
  GI50: 1630 nM
  TGI: 3070 nM
NCI-H522 lung
  GI50: 1590 nM
  TGI: 3270 nM
OVCAR-4 ovarian
  GI50: 1280 nM
  TGI: 2950 nM
SF-295 CNS
  GI50: 1800 nM
  TGI: 3330 nM
HS 578T breast
  GI50: 1910 nM
  TGI: 4740 nM
MOLT-4 leukemia
  GI50: 1600 nM
  TGI: 3530 nM
MCF7 breast
  GI50: 1320 nM
  TGI: 2950 nM
LOX IMVI melanoma
  GI50: 1800 nM
  TGI: 3340 nM
M14 melanoma
  GI50: 1710 nM
  TGI: 3200 nM
CAKI-1 renal
  GI50: 1520 nM
  TGI: 2910 nM
SN12C renal
  GI50: 2080 nM
  TGI: 4670 nM
U251 CNS
  GI50: 1440 nM
  TGI: 2940 nM
SK-MEL-2 melanoma
  GI50: 15500 nM
  TGI: 31000 nM
TK-10 renal
  GI50: 2010 nM
  TGI: 3620 nM
MDA-MB-231 breast
  GI50: 1600 nM
  TGI: 3360 nM
HCT-15 colon
  GI50: 1480 nM
  TGI: 2910 nM
NCI-H23 lung
  GI50: 1700 nM
  TGI: 3330 nM
SNB-19 CNS
  GI50: 1910 nM
  TGI: 3880 nM
RPMI-8226 leukemia
  GI50: 1450 nM
  TGI: 4010 nM
SW-620 colon
  GI50: 1860 nM
  TGI: 3590 nM
DU-145 prostate
  GI50: 1690 nM
  TGI: 3440 nM
SR leukemia
  GI50: 282 nM
  TGI: 1160 nM
UACC-62 melanoma
  GI50: 1840 nM
  TGI: 3610 nM
SF-539 CNS
  GI50: 1740 nM
  TGI: 3170 nM
UACC-257 melanoma
  GI50: 1770 nM
  TGI: 3490 nM
RXF 393 renal
  GI50: 1690 nM
  TGI: 3490 nM
UO-31 renal
  GI50: 1250 nM
  TGI: 2550 nM
